Experimental data: PMC4317927 (Cancer Science, 2014)

T1: NF-κB (p50) (Homo sapiens, UniProt P19838)
T1 sequence (P19838 1-433 limits assumed): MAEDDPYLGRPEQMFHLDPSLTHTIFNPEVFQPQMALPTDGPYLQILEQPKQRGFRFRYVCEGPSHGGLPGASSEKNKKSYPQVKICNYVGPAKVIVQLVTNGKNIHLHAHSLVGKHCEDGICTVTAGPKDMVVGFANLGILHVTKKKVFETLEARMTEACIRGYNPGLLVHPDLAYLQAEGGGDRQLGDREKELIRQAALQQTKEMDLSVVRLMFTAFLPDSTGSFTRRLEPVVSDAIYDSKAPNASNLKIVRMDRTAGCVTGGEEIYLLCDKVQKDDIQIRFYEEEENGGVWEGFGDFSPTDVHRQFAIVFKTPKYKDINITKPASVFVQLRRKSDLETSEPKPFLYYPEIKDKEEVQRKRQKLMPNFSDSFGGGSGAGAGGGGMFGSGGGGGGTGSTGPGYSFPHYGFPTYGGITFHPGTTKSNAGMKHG

T2: NF-κB (p52) (Homo sapiens, UniProt Q00653)
T2 sequence (Q00653 1-454 limits assumed): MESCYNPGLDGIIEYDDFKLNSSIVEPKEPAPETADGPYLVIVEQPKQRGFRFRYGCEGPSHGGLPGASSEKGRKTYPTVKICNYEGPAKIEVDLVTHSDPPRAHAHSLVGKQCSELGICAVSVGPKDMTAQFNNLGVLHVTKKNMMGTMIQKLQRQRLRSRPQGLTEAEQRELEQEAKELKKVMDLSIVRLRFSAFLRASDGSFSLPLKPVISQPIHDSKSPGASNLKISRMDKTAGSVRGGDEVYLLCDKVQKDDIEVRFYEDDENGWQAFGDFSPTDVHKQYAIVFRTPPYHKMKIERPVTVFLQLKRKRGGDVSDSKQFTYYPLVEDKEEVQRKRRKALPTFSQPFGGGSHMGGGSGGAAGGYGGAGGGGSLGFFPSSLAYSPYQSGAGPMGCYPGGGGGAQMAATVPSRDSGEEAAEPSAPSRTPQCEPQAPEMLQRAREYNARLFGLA


Assays:
[1] = target: T1, NF-κB (p50); experiment: DSE-FRET DNA-binding
[2] = target: T2, NF-κB (p52); experiment: DSE-FRET DNA-binding
[3] = target: GST-NF-kB p50 (human, UniProt P19838 1-433); experiment: DSE-FRET

IC50 [1] [µM]	IC50 [2] [µM]	Molecule	apparent K (half saturation) [3] [nM]
8.8	62.5	O=C(NC1=CC(=O)[C@H]2O[C@H]2[C@H]1O)c1ccccc1O [(−)-DHMEQ]	–
12.9	12.8	Cc1cc(-c2ccc(/N=N/c3ccc4c(S(=O)(=O)O)cc(S(=O)(=O)O)c(N)c4c3O)c(C)c2)ccc1/N=N/c1ccc2c(S(=O)(=O)O)cc(S(=O)(=O)O)c(N)c2c1O [EB, Evans Blue]	–
–	–	NF-D1 (NF-01F/NF-14D) (dsDNA) DNA 1: AGTTGAGGGGACTTTCCCAGGCGACTCACTATAGGCGGTGTCTCGCTCGC DNA 2: GGGAATGGTGTGGTGCCTATAGTGAGTCGCCTGGGAAAGTCCCCTCAACT	~40
